Test results from patent publication US8501842B2, “Polypropylene resin composition and molded article” (Sumitomo Chemical Company, Limited, priority 2007, dated 2013).

Assay: Weight loss by thermogravimetric analysis (TG-DTA)
Assay type: physicochemical
Settings: room temperature to 300° C. at 10° C./min, nitrogen gas atmosphere (100 ml/min)
Experimental: Regarding requirement (c), from the viewpoint of the staining of a mold, the emitted amount of VOC, and the stability against photodegradation, the weight loss measured in a thermogravimetric analysis at a temperature of 300° C. under a nitrogen gas atmosphere preferably is less than 5% by weight, and more preferably is less than 3% by weight. The weight loss measured by the thermogravimetric analysis of a hindered amine light stabilizer (C) is a value determined by using a thermo gravimetry differential thermal analyzer (TG-DTA). Described concretely, it is a weight loss rate determined using a thermobalance when the temperature of a hindered amine light stabilizer (C) is increased from room temperature to 300° C. at a rate of 10° C. per minute under a nitrogen gas atmosphere (in a nitrogen flow at a flow rate of 100 ml/min).
The weight loss by thermogravimetric analysis (TG-DTA) of a hindered amine light stabilizer was measured with a thermo gravimetry differential thermal analyzer from room temperature to 300° C. at a temperature increasing rate of 10° C./min under a nitrogen gas atmosphere (100 ml/min).

Compound | Weight loss by thermogravimetric analysis (TG-DTA) [% by weight]
CN1C(C)(C)CC(OC(=O)CC(C(=O)OC2CC(C)(C)N(C)C(C)(C)C2)C(CC(=O)OC2CC(C)(C)N(C)C(C)(C)C2)C(=O)OC2CC(C)(C)N(C)C(C)(C)C2)CC1(C)C (stereo not drawn) [Example C-2, Tetrakis(1,2,2,6,6-pentamethyl-4-piperidyl) 1,2,3,4-butanetetracarboxylate] | 5.8
Condensate of N,N-bis(3-aminopropyl)ethylenediamine-2,4-bis[N-butyl-N-(1,2,2,6,6-pentamethyl-4-piperidyl)amino]-6-chloro-1,3,5-triazine [Example C-5] | 0.6
CC(C)(C)c1ccc(OC(=O)c2cc(C(C)(C)C)c(O)c(C(C)(C)C)c2)c(C(C)(C)C)c1 [Example C-3, 2,4-Di-tert-butylphenyl 3,5-di-tert-butyl-4-hydroxybenzoate] | 31.6
